Test [1] has as its system Avena fatua. The test is described as follows: Herbicidal activity against Avena fatua assessed as growth reduction at 1 mg/ha. In kind it is functional.
Test [2] has as its system Ipomoea hederacea. Description: Herbicidal activity against Ipomoea hederacea (ivy-leaved morning glory) assessed as growth reduction at 1 mg/ha. In kind it is functional.
The subject of test [3] is Setaria faberi. Description: Herbicidal activity against Setaria faberi (Giant Foxtail) assessed as growth reduction at 1 mg/ha. In kind it is functional.
For test [4], the system named is Helianthus annuus. The test is described as follows: Herbicidal activity against Helianthus annuus (sunflower) assessed as growth reduction at 1 mg/ha. In kind it is functional.
Test [5] concerns Avena fatua. The test is described as follows: Herbicidal activity against Avena fatua assessed as growth reduction at 3 mg/ha. In kind it is functional.
The test system of test [6] is Setaria faberi. The test is described as follows: Herbicidal activity against Setaria faberi (Giant Foxtail) assessed as growth reduction at 3 mg/ha. In kind it is functional.
Test [7] deals with Ipomoea hederacea. The test is described as follows: Herbicidal activity against Ipomoea hederacea (ivy-leaved morning glory) assessed as growth reduction at 3 mg/ha. In kind it is functional.
The test system of test [8] is Helianthus annuus. Description: Herbicidal activity against Helianthus annuus (sunflower) assessed as growth reduction at 3 mg/ha. In kind it is functional.
For another test, the system named is Desmodesmus subspicatus. The test is described as follows: Antimicrobial activity against Scenedesmus subspicatus SAG 86.81 assessed as growth inhibition. In kind it is functional.
In another test the test system is Tetradesmus obliquus. The test is described as follows: Antimicrobial activity against Acutodesmus obliquus SAG 276-1 assessed as growth inhibition. In kind it is functional.
Another test relates to Synechococcus. The test is described as follows: Antimicrobial activity against cyanobacteria Synechococcus PCC 6911 assessed as growth inhibition. In kind it is functional.
Test [9] deals with Lemna minor. Description: Herbicidal activity against Lemna minor (common duckweed) at 100 uM. In kind it is functional.
Test [10] can be described thus: Inhibition of PS2 at 100 uM.
In test [11] the test system is Lemna minor. Description: Herbicidal activity against Lemna minor (common duckweed) at 50 uM. In kind it is functional. The conditions noted are these: read-out: GI.
The nature of test [12]: Inhibition of PS2 at 50 uM.

Molecules are shown by their SMILES. Converted amounts (≈) assume the structure as drawn.

As to `C[C@@H]1/C(O)=C2/C(=O)N[C@H](Cc3ccc(cc3)OC[C@H]3O[C@@H]3CCC1O)C2=O` (stereo not given in full) [MACROCIDIN B], the “growth inhibition (GI)” value is reported as 0% in the test with Avena fatua [1], 0% in the test on Ipomoea hederacea [2], 20% with Setaria faberi [3] and 50% in the test on Helianthus annuus [4].

Turning to `C[C@H]1CCC[C@H]2O[C@@H]2COc2ccc(cc2)C[C@H]2NC(=O)/C(=C/1O)C2=O` [MACROCIDIN A], the “growth inhibition (GI)” value worked out at 0% with Avena fatua [5], 65% in the test with Setaria faberi [6], 0% in the test on Ipomoea hederacea [7] and 50% in the test with Helianthus annuus [8].

Regarding `CCCCCC#CC#C/C=C/CC(C)C[C@@H]1C[C@H](C)/C(=C2/C(=O)C(C)N(C)C2=O)N1N` (stereo not given in full) [FISCHERELLIN A], the MIC with Desmodesmus subspicatus, in the test on Tetradesmus obliquus and in the test on Synechococcus was 0.5 µM (≈ 0.212 µg/mL) in each case. For the same molecule, the inhibition at 100 µM in the test on Lemna minor [9] was found to be 74%. Besides, the results for the inhibition in test [10] and in test [12] were 98% and 60%, respectively. Also, the inhibition of growth at 50 µM in the test on Lemna minor [11] was 44%.

As usually defined, the MIC is the lowest concentration that inhibits growth of the organism. Usually inhibition stands for the relative decrease from the control value, in per cent. A lower inhibition goes with little suppression.

For the origin of these results see ChEMBL document CHEMBL3045666, “The phytotoxicity of natural tetramic acid derivatives” (Pest Manag Sci, 2011).
